Laboratory results as given in US11384115B2, “Nuclear sulfated oxysterol, potent regulator of lipid homeostasis, for therapy of hypercholesterolemia, hypertriglycerides, fatty liver diseases, and atherosclerosis” (Virginia Commonwealth University, priority 2004, dated 2022).

System: NFκB
Assay: NFκB dependent reporter gene-Luc assay in H441 cells, TNFα-induced
Assay type: cell-based, human
Description: A, THP-1 macrophages were treated with 25HC3S or 25HC for 24 hrs followed by addition or no addition of TNFα for another 3 hrs. The nuclear NFκB levels were analyzed by Western blot. The data represent one typical result out of three experiments. […] The reporter gene expression was induced by incubating with 10 ng/ml of TNFα for 3 hrs. The left figure represents cells transfected with pNFκB dependent reporter gene-Luc plasmid alone; the right figure, represents cells co-transfected with PPARγ expression plasmid.
H441 cells were seeded in 96-well plates. When cell density reached 90-95%, the cells were transfected with an expression plasmid as indicated using a lipid-based FuGENE HD transfection reagent according to the manufacture (Roche, Indianapolis, Ind.). A synthetic renilla luciferase reporter, phrG-TK (Promega, Wisconsin, Wis.), was used as a luciferase internal standard. For PPRE reporter gene assay, 50 ng of pGL3-PPRE-acyl-CoA oxidase luciferase reporter, 50 ng of expression plasmid pCMX-PPARγ, and 50 ng of phrG-TK vector (internal standard) were cotransfected as per the manufacture's instruction. […] Luciferase activities were determined using the Dual-Glo Luciferase Assay System according to the manufacturer's protocol (Promega, Wisconsin, Wis.). The amount of luciferase activity was measured using a TopCount NXT Microplate Scintillation and Luminescence Counter (Packard, Meriden, Conn.) and normalized to the amount of phG-TK luciferase activity. Transfections were carried out in triplicate for each sample, and each experiment was repeated three times.

`C[C@H](CCCC(C)(C)O)[C@H]1CC[C@H]2[C@@H]3CC=C4C[C@@H](OS(=O)(=O)O)CC[C@]4(C)[C@H]3CC[C@]12C` [25HC3S, 5-cholesten-3β, 25-diol 3-sulphate] was tested, and the “TNFα induction of NFκB dependent reporter gene expression” value (H441, absence of PPARγ expression plasmid) was “failed to suppress”, the “reduction of TNFα induction of NFκB dependent reporter gene expression” value (H441 co-transfected with PPARγ expression plasmid) was 50% and the “suppression of NFκB reporter induction in the presence of PPARγ antagonist” value (H441 co-transfected with PPARγ, T0070907) was “the suppression was blunted”.
